The values below come from PubChem BioAssay AID1996.

As usually defined, the kinetic solubility is solubility judged after dilution from a stock solution rather than from solid.

The structures appear in SMILES notation. In brackets after ≈: the same amount, converted by molar mass. A value given as a limit tells only on which side of the number the result lay.

For this series the following is noted: buffer; pH 7.4; 200.0 µM.
`CCN(C(=O)COC(=O)c1ccc2c(c1)OCO2)c1ccc(F)cc1` registered a solubility (kinetic) of 10.4 µg/mL (≈ 30.1 µM).

`Cc1ccc(S(=O)(=O)CC(=O)Nc2cc(C)on2)cc1` had a kinetic solubility of 37.6 µg/mL (≈ 128 µM).

Molecule `CCN(CC)CCCNC(=O)/C=C/C(=O)O` had a solubility (kinetic) of 31.2 µg/mL (≈ 137 µM).

Molecule `O=C(Cc1c[nH]c2ccccc12)Nc1ccc(N2CCOCC2)cc1` returned a solubility (kinetic) of 10.1 µg/mL (≈ 30.1 µM).

As to `Cc1cc(C(=O)COC(=O)Cc2ccc(Cl)cc2)c(C)n1C`, the kinetic solubility came to 21.3 µg/mL (≈ 66.6 µM).

Take `COc1cccc(OCC(O)CNC2CCCC2)c1.Cl` (stereo unspecified): the kinetic solubility was greater than 45.3 µg/mL.

`O=C(COC(=O)C1C2CC3OC(=O)C1C3C2)Nc1ccc(F)cc1` (stereo unspecified) came in with a solubility (kinetic) greater than 50 µg/mL.

For the molecule `CCN1CCCC1CNc1ccc(S(C)(=O)=O)cc1[N+](=O)[O-]` (stereo unspecified), the solubility (kinetic) is greater than 49.1 µg/mL.

Molecule `C=CCN=C1S/C(=C/c2ccc([N+](=O)[O-])cc2)C(=O)N1CC=C` registered a kinetic solubility of less than 0.2 µg/mL.

For `Cn1cccc1C(=O)NC1CCCCCC1`, the kinetic solubility was greater than 33 µg/mL.

On to `CC(C(=O)NCc1cccnc1)c1ccc([N+](=O)[O-])cc1` (stereo unspecified), for which the solubility (kinetic) is greater than 42.8 µg/mL.

Turning to `Cc1[nH]c2ccccc2c1C(=O)CSC(=S)N1CCN(C)CC1`, the kinetic solubility turned out to be 2.4 µg/mL (≈ 6.91 µM).

Regarding `COc1ccc(CNC(=O)C2CCN(C(=O)c3ccccc3)CC2)cc1`, the solubility (kinetic) is greater than 52.9 µg/mL.

Consider `O=C(Nc1ccc(F)cc1)Nc1cccnc1`, for which the kinetic solubility was greater than 34.7 µg/mL.

With `CC(=O)Nc1nc(-c2ccc3c(c2)CC(C)N3C(=O)C2CC2)c(C)s1` (stereo unspecified), the kinetic solubility was found to be 35 µg/mL (≈ 98.5 µM).

Consider `CC(=O)Nc1ccc(NC(=O)c2c(C)noc2C)cc1`, for which the solubility (kinetic) was greater than 41 µg/mL.

`Cc1ccc(S(=O)(=O)NCC(=O)Nc2cccnc2)cc1C` registered a kinetic solubility greater than 47.9 µg/mL.

Molecule `O=Cc1c(N2CCSCC2)nc2ccccn2c1=O` showed a solubility (kinetic) greater than 41.3 µg/mL.

`O=S(=O)(NCCNc1nccc(C(F)(F)F)n1)c1ccccc1` displayed a solubility (kinetic) of 50.2 µg/mL (≈ 145 µM).

For `CCC(=O)c1ccc(OCC(=O)Nc2ccccc2N2CCCCC2)cc1`, the kinetic solubility is less than 0.4 µg/mL.

`Cc1ccc(C(C)C)c(OCCOCCN2CCNCC2)c1.O=C(O)C(=O)O` showed a solubility (kinetic) of 52.1 µg/mL.

In turn, `CC(O)CNc1nc2c(c(=O)n(Cc3cccc(Cl)c3)c(=O)n2C)n1C` (stereo unspecified) displayed a kinetic solubility of 50.5 µg/mL (≈ 134 µM).

In turn, `Nc1c(N(CCO)C(=O)C2CCCC2)c(=O)[nH]c(=O)n1Cc1ccccc1` showed a kinetic solubility greater than 55.9 µg/mL.

On to `CC(=O)Nc1ccc(C(=O)OCc2ccc(F)cc2Cl)cc1`, for which the kinetic solubility is 1.7 µg/mL (≈ 5.28 µM).

`CCOC(=O)C1=C(O)C(=O)N(c2ccccc2)C1c1cccc([N+](=O)[O-])c1` (stereo unspecified) yielded a kinetic solubility of 52 µg/mL (≈ 141 µM).

In turn, `COC(=O)c1ccc(Nc2cc(C)nc3ccc(C)cc23)cc1.Cl` came in with a solubility (kinetic) of 8 µg/mL.

Regarding `N/C(=N\OC(=O)c1cccc2ccccc12)c1ccccn1`, the solubility (kinetic) came out at 38.2 µg/mL (≈ 131 µM).

As to `O=C1CCCc2c1nc(-c1ccc(F)cc1)n2O`, the solubility (kinetic) was greater than 36.9 µg/mL.

Regarding `COc1ccc(-c2noc(CCC(=O)Nc3cccnc3)n2)cc1`, the solubility (kinetic) turned out to be 3.8 µg/mL (≈ 11.7 µM).

On to `Cc1ccc(S(=O)(=O)N2CCN(Cc3ccco3)CC2)cc1C`, for which the kinetic solubility came out at 13.1 µg/mL (≈ 39.2 µM).

Molecule `O=C1NC(=O)C2(CCCCCCCCCCC2)N1` registered a kinetic solubility of 1.5 µg/mL (≈ 5.94 µM).

The molecule `O=[N+]([O-])c1ccccc1NCc1ccccc1Cl` showed a kinetic solubility of less than 0.3 µg/mL.

Molecule `Cc1cccc(C)c1N(CC(=O)N1CCOCC1)S(C)(=O)=O` gave a solubility (kinetic) greater than 49 µg/mL.

For `Cc1ccc(OCc2ccccc2C)c([N+](=O)[O-])n1`, the kinetic solubility stood at 18.4 µg/mL (≈ 71.2 µM).

`Cc1ccc(Nc2nc(N)c3ccccc3n2)cc1Cl.Cl` displayed a kinetic solubility of 22.1 µg/mL.

Regarding `CCS(=O)(=O)C(C)(CCl)C(=O)Nc1ccc(C(=O)OC)cc1` (stereo unspecified), the kinetic solubility was greater than 52.2 µg/mL.

Regarding `CC(=O)c1ccc[n+](CC(=O)NC(C)c2ccccc2)c1.[Cl-]` (stereo unspecified), the kinetic solubility was greater than 47.8 µg/mL.

The molecule `CCN(CC)S(=O)(=O)c1cccc(C(=O)N[C@H](C(=O)NC2=NCCS2)C(C)C)c1` registered a solubility (kinetic) of 64.5 µg/mL (≈ 146 µM).

Regarding `C=CCOc1cccc(CNCc2ccncc2)c1`, the solubility (kinetic) is 28 µg/mL (≈ 110 µM).

The molecule `Cc1ccc(OCCNC(=O)c2ccc3ccccc3n2)cc1` registered a solubility (kinetic) of 5.4 µg/mL (≈ 17.6 µM).

The molecule `COC(=O)c1cc(S(=O)(=O)N2CCC(C(N)=O)CC2)oc1C` had a solubility (kinetic) greater than 49.6 µg/mL.

In turn, `O=C(NCC(c1ccco1)N1CCOCC1)c1ccc([N+](=O)[O-])cc1` (stereo unspecified) had a solubility (kinetic) greater than 51.8 µg/mL.

`NC(=O)c1ccsc1NC(=O)COC(=O)/C=C/c1ccccc1[N+](=O)[O-]` came in with a solubility (kinetic) of 4.3 µg/mL (≈ 11.5 µM).

In the case of `Nc1ncnc(SCc2c(F)cccc2Cl)n1`, the kinetic solubility came to 2.8 µg/mL (≈ 10.3 µM).

In turn, `O=C(NC1=NCCS1)c1cc(Cl)ccc1Cl` had a kinetic solubility of 37.1 µg/mL (≈ 135 µM).

Take `O=C(NC1CCCC1)C1CCN(C(=O)c2ccc(Cl)cc2)CC1`: the kinetic solubility is greater than 50.2 µg/mL.

Molecule `O=C(Nc1ccc(N2CCOCC2)c(F)c1)c1cccs1` returned a kinetic solubility of 17 µg/mL (≈ 55.5 µM).

`CSCC(CO)NS(=O)(=O)c1ccc(C)cc1` (stereo unspecified) showed a kinetic solubility greater than 41.3 µg/mL.

For the molecule `COc1ccc(Cl)cc1NC(=O)CN(C)CC(=O)NCc1ccc(F)cc1`, the solubility (kinetic) is greater than 59.1 µg/mL.

`CC1SCC(=O)N(CC(=O)NCCc2ccccc2)C1=O` (stereo unspecified): the kinetic solubility was greater than 46 µg/mL.

On to `COC(=O)C(Cc1ccccc1)NC(=O)CCNC(=O)c1ccco1` (stereo unspecified), for which the kinetic solubility is greater than 51.7 µg/mL.
